{"source": "patent US10584351B2", "about": "“Vectors conditionally expressing therapeutic proteins, host cells comprising the vectors, and uses thereof” (Intrexon Corporation, priority 2010, dated 2020)", "key": {"[1]": {"tested_on": "B16F0 murine melanoma cancer cells", "assay": "Ad-RTS-IL-12 dose response study in the mouse B16F0 melanoma model", "format": "in vivo", "conditions": "ligand by itself (chow)", "description": "The anti-tumor effect of Ad-RTS-IL-12 has been evaluated in a series of murine tumor models of melanoma, colorectal, pancreatic, breast, lung and renal cancers. An exemplary dose response experiment is shown below. Immuno-competent female C57bl/6 mice (6-8 week old) were inoculated subcutaneously with B16F0 murine melanoma cancer cells. Eleven days after tumor cell inoculation, when macroscopic tumor nodules were evident (tumor volumes averaged approx. 40 mm^3), the mice were separated into groups of 5 animals each. There were 9 groups including: control saline treated; activator ligand treated; Ad-RTS-mIL12 ([…]) alone and 6 groups were treated with different doses of vector Ad-RTS-mIL-12 (1e7, 1e8, 1e9, 5e9, 1e10, 5e10 viral particles) plus activator ligand. Mice in the +ligand groups were provided 100 mg/kg activator ligand in 2018 Teklad Global 18% Protein Rodent Diet (Harlan Laboratories) chow (1000 mg ligand/kg chow) one day before the vector administration. The mice in control groups received 2018 Teklad Global 18% Protein Rodent Diet chow. A single administration of Ad-RTS-mIL12 in 100 ul PBS was injected into tumor on day 12. Tumor volume and body weights were measured every 2-3 days using calipers and a weight scale, and the animals were followed until control tumors reached 2000 mm^3. Data were uploaded into Study Log animal study software."}, "[2]": {"tested_on": "murine Lewis lung carcinoma cells (LLC)", "assay": "Ad-RTS-mIL12 in the Lewis lung carcinoma (LLC) model", "format": "in vivo, mouse", "conditions": "activator (L) chow alone", "description": "Female, 6- to 8-week-old C57b/6 immunocompetent mice were inoculated subcutaneously (s.c.) with murine Lewis lung carcinoma cells (LLC). Five days post cell inoculation, the mice were randomized and assigned to treatment and control groups (n=5) for a total of four groups—no treatment (control), activator (RG-115932) alone, AdRTS-mIL12 alone and Ad-RTS-mIL12 plus activator. The cohorts receiving activator (L) were fed (2018 Teklad Global 18% Protein Rodent Diet (Harlan Laboratories) chow blended with activator (1000 mg/kg chow) ad libitum. Cohorts receiving treatment with Ad-RTS-mIL12 alone or no treatment continued to receive a regular diet. Treatment was initiated when the tumor reached 28±6 mm^3. The Ad-RTS-mIL12 (1e10 vp/100 ul in PBS) was given to mice through intratumoral (i.t.) injection on Day 6, 9 and 13 post tumor cell inoculation. Activator chow (L) was started to given to mice 24 hr prior to vector administration. Tumor size and body weight of each mouse were monitored three times a week using calipers and a weight scale until the end of experiment. The experiment was terminated when the mice tumor size exceeded >1200 mm^3. Data were uploaded into Study Log animal study software."}, "[3]": {"tested_on": "murine melanoma cancer cells (B16F0)", "assay": "Ad-RTS-mIL12 with different activator doses in the melanoma (B16F0) model", "format": "in vivo, mouse", "conditions": "activator chow alone", "experimental": "Female, 6- to 8-week-old C57b/6 immunocompetent mice were inoculated subcutaneously (s.c.) with murine melanoma cancer cells (B16F0). Ten days post cell inoculation, the mice were randomly assigned to treatment and control groups (n=5) for a total of nine groups: no treatment (control), activator (L) (RG-115932) alone, and AdRTS-mlL12 alone, and Ad-RTS-mIL12 with different activator dose (50, 100, 250, 500 and 1000 mg/kg) of ligand. The cohorts receiving activator (L) were fed rodent 2018 Teklad Global 18% Protein Rodent Diet chow blended with activator (1000 mg/kg chow) ad libitum. Cohorts receiving treatment with Ad-RTS-mIL12 alone or no treatment continued to receive a regular 2018 Teklad Global 18% Protein Rodent Diet chow diet. Treatment was initiated when the tumor reached […]. A single dose of Ad-RTSmIL12 (1e10 vp/100 ul in PBS) was given to mice through intratumoral (i.t.) injection on Day 13 post tumor cell inoculation. The activator (L) chow was given to mice 24 hr prior to vector injection. Tumor size and body weight of each mouse were monitored three times a week using calipers and a weight scale until the end of experiment. The experiment was terminated when the tumor size exceeded >2000 mm^3. Data were uploaded into Study Log animal study software."}, "[4]": {"tested_on": "murine colon cancer cells (CT26Luc)", "assay": "Ad-RTS-mIL12 in the colon cancer (CT26Luc) model", "format": "in vivo, mouse", "conditions": "activator chow alone", "description": "Female, 6- to 8-week-old Balb/C immunocompetent mice were inoculated subcutaneously (s.c.) with luciferase expressing stable murine colon cancer cells (CT26Luc). Ten days post cell inoculation, the mice were randomly assigned to treatment and control groups (n=5) for a total of three groups—no treatment (control), activator (L) (RG-115932) alone, and Ad-RTS-mIL12 plus activator. The cohorts receiving activator (L) were fed 2018 Teklad Global 18% Protein Rodent Diet chow (Harlan Laboratories) blended with activator (1000 mg/kg chow) ad libitum. Cohorts receiving no treatment continued to receive 2018 Teklad Global 18% Protein Rodent Diet chow. Treatment was initiated when the tumor reached 40+17 mm^3. The Ad-RTS-mIL12 (1e10 vp/100 ul in PBS) was given to mice through intratumoral (i.t.) injection on Day 11 and 18 post tumor cell inoculation. The activator (L) chow was given to mice 24 hr prior to vector injection. Tumor size and body weight of each mouse were monitored three times a week using calipers and a weight scale until the end of experiment. The experiment was terminated when the mouse tumor size exceeds >2000 mm^3. Data were uploaded into Study Log animal study software."}, "[5]": {"tested_on": "PAN02 pancreatic cancer cells", "assay": "Ad-RTS-mIL12 in the pancreatic cancer (PAN02) model", "format": "in vivo, mouse", "conditions": "activator alone", "experimental": "Female, 6- to 8-week-old C57b/6 immuno competent mice were inoculated subcutaneously (s.c.) with syngenic PAN02 pancreatic cancer cells (ATCC). Six days post cell inoculation, the mice were randomized into groups of five animals each in four groups—no treatment, activator (RG-115932) alone, Ad-RTS-mIL12 alone and Ad-RTS-mIL12 plus activator. The cohorts receiving activator ligand were fed 2018 Teklad Global 18% Protein Rodent Diet chow (Harlan Laboratories) blended with activator (1000 mg/kg chow) ad libitum. Cohorts receiving treatment with Ad-RTS-mIL12 alone or no treatment continued to receive 2018 Teklad Global 18% Protein Rodent Diet chow. Mice received treatment with a single intratumoral (i.t.) injection of Ad-RTS-mIL12 at dose level of 1e10 vp/100 ul in PBS, on Day 7 and Day 14 post tumor cell implantation. The tumor size averaged […] at the time of vector treatment initiation.\nTumor size and body weight of each mouse were monitored three times a week until the end of experiment. The experiment was terminated when the mice tumor size exceeded 600 mm^3. Since pancreatic tumors grow very slowly, we defined […]. The tumor growth in mice receiving no treatment was normal."}, "[6]": {"tested_on": "breast cancer (4T1) cells", "assay": "Ad-RTS-mIL12 in the breast cancer (4T1) model", "format": "in vivo, mouse", "conditions": "activator ligand alone, Day 26", "experimental": "Six- to eight-week-old female BalbC mice were purchased from Charles River Laboratories or Harlan (USA). Animal care and experimental procedure were performed according to the Intrexon's Institutional Animal Care and Use Committee guideline.\nMurine breast carcinoma (4T1) cell lines were purchased from ATCC (Manassas, Va.). The 4T1 cells were grown in Roswell Park Memorial Institute medium (RPMI) 1640 (ATCC, Manassas, Va. The medium was supplemented with heat-inactivated fetal calf serum (FCS) 10% v/v, 2-mM L-glutamine (Atlanta Biologicals, Inc, Lawrenceville, Ga.), 100 IU/ml penicillin G, and 100 μg/ml streptomycin. The cells were grown at 37° C. in 5% C02. All cell lines were routinely tested and found to be free of mycoplasma.\nFemale, 6- to 8-week-old BALB/c immune-competent mice were inoculated subcutaneously (s.c.) with syngenic breast cancer (4T1) cells, 1e5 cells/50 ul. Eight days post cell inoculation, the mice were randomized into groups of five animals each in four groups—no treatment, activator alone, Ad-RTS-mIL12 alone and Ad-RTS-mIL12 plus activator. The cohorts receiving activator ligand were fed rodent chow blended with activator (1000 mg/kg) ad libitum. […] Tumor size and body weight of each mouse were monitored three times a week until the end of experiment. […]"}}}
{"smiles": "CCC[C@@H](N(NC(=O)c1cccc(OC)c1CC)C(=O)c1cc(C)cc(C)c1)C(C)(C)C", "note": "[RG-115932, (R)-3,5-Dimethyl-benzoic acid N-(1-tert-butyl-butyl)-N′-(2-ethyl-3-methoxy-benzoyl)-hydrazide]", "values": [{"measurement": "anti-tumor effect", "setting": "[1]", "value": "no effect"}, {"measurement": "tumor growth kinetics versus control", "setting": "[2]", "value": "approximately similar tumor growth kinetics"}, {"measurement": "anti-tumor activity", "setting": "[3]", "value": "did not have anti-tumor activity"}, {"measurement": "tumor growth", "setting": "[4]", "value": "did not inhibit tumor growth"}, {"measurement": "tumor growth delay", "setting": "[5]", "value": "minor tumor growth delay"}, {"measurement": "tumor growth inhibition relative to control", "setting": "[6]", "value": 22, "unit": "%"}, {"measurement": "tumor growth inhibition relative to control", "setting": "[6]; listed as activator ligand (L)", "value": 35, "unit": "%"}]}
